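Grown in 96-well plates, cells were treated for 48 hours with each compound at five concentrations. Insufficient inhibition: endpoint recorded as highest concentration tested. Abbreviation: GI50, concentration required for 50% inhibition of growth. At the TGI there is no net growth.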
Assays:
Test in all cases: inhibition of tumour cell growth, NCI panel, 48 h
[1] = system: SNB-78 CNS
[2] = system: LXFL 529 NSCLC
[3] = system: EKVX NSCLC
[4] = system: SW-620 colon
[5] = system: HOP-62 NSCLC
[6] = system: A549 NSCLC
[7] = system: HCT-15 colon
[8] = system: LOX IMVI melanoma
[9] = system: MDA-MB-231 breast
[10] = system: T-47D breast

| Structure (SMILES) | TGI [1] | TGI [2] | TGI [3] | TGI [4] | TGI [5] | TGI [6] | TGI [7] | TGI [8] | GI50 [1] | GI50 [2] | GI50 [3] | GI50 [4] | GI50 [5] | GI50 [6] | GI50 [7] | GI50 [8] | TGI [9] | TGI [10] |
| --- | --- | --- | --- | --- | --- | --- | --- | --- | --- | --- | --- | --- | --- | --- | --- | --- | --- | --- |
| COC(=O)C1Cc2c([nH]c3ccccc23)C=N1 (stereo not given) | > 100 µM | > 100 µM | > 100 µM | > 100 µM | > 100 µM | > 100 µM | > 100 µM | > 100 µM |  |  |  |  |  |  |  |  |  |  |
| Cc1cc(Cl)ccc1NC(=O)C1C(=O)N(c2ccc(Cl)cc2C)C(=O)/C1=N\N (stereo not given) | > 100 µM | > 100 µM | > 100 µM | > 100 µM | > 100 µM | > 100 µM | > 100 µM | > 100 µM |  |  |  |  |  |  |  |  |  |  |
| N#CC(C#N)=C1NC(=O)C(c2ccccc2)C(=O)N1 (stereo not given) | > 100 µM | > 100 µM | > 100 µM | > 100 µM | > 100 µM | > 100 µM | > 100 µM | > 100 µM |  |  |  |  |  |  |  |  |  |  |
| CCCCCCCCCCCCC(Br)C(=O)SCCNC(=O)CCNC(=O)[C@@H](O)C(C)(C)COP(=O)(O)OP(=O)(O)OCC1OC(n2cnc3c(N)ncnc32)C(O)C1OP(=O)(O)O (stereo not given in full) | > 56.5 µM | > 56.5 µM | > 56.5 µM | > 56.5 µM | > 56.5 µM | > 56.5 µM | > 56.5 µM | > 56.5 µM |  |  |  |  |  |  |  |  |  |  |
| CC(CN(CP(=O)([O-])[O-])CP(=O)([O-])[O-])N(CP(=O)([O-])[O-])CP(=O)([O-])[O-].N[C@@H]1CCCC[C@@H]1N.[Pt+2] (stereo not given) | > 100 µM | > 100 µM | > 100 µM | > 100 µM | > 100 µM | > 100 µM | > 100 µM | > 100 µM | > 100 µM | > 100 µM | > 100 µM | > 100 µM | > 100 µM | > 100 µM | > 100 µM | > 100 µM |  |  |
| Cc1ccccc1NC(=O)c1[nH]c(=S)nc(N)c1-c1ccccc1C | > 100 µM | > 100 µM | > 100 µM | > 100 µM | > 100 µM | > 100 µM | > 100 µM | > 100 µM |  |  |  |  |  |  |  |  |  |  |
| O=C1C(c2ccccc2)=C(c2ccccc2)C(c2ccccc2)/C1=C1\C(=O)C(c2ccccc2)=C(c2ccccc2)C1c1ccccc1 (stereo not given) | > 100 µM | > 100 µM | > 100 µM | > 100 µM | > 100 µM | > 100 µM | > 100 µM | > 100 µM |  |  |  |  |  |  |  |  |  |  |
| O=C(CC1C(=O)Nc2ccccc2S1=O)Nc1cccc(Cl)c1 (stereo not given) | > 100 µM | > 100 µM | > 87.4 µM | > 100 µM | > 77.6 µM | > 100 µM | > 100 µM | > 100 µM |  |  |  |  |  |  |  |  | 34.4 µM | 42.7 µM |
| Cc1cccc(C)c1NC(=O)C(=O)C1C(=O)N(c2ccccc2)N=C1N (stereo not given) | > 100 µM | > 100 µM | > 100 µM | > 100 µM | > 100 µM | > 100 µM | > 100 µM | > 100 µM |  |  |  |  |  |  |  |  |  |  |
| O=C(O)/C(Cl)=C(/Cl)C(=O)Nc1cccc(Cl)c1 | 61 µM | 30.3 µM | 33.6 µM | 32.1 µM | > 76.3 µM | > 100 µM | 34.9 µM | 20.8 µM |  |  |  |  |  |  |  |  | 28.1 µM | 50.8 µM |
| O=C(OCCOCCOC(=O)c1c[nH]cc1-c1ccccc1)c1c[nH]cc1-c1ccccc1 | 68.7 µM | 69.2 µM | 69.9 µM | 76.5 µM | 31.7 µM | 66.4 µM | 38.5 µM | 30.2 µM |  |  |  |  |  |  |  |  |  |  |

Source: PubChem BioAssay (NCI)
